Assay results reported in patent US20240199692A1 (priority 2019, published 2024).
*1 amine or outer side, *2 acyl side, *3 side chain or, on linkers, in order; H or OH if unused. Where a SMILES comes first, the peptide text is derived from it. Side-chain parts run from the residue outwards. [ ]: non-standard residue; d: D form. The star is where a group is joined. Phenylsulfonyl(4-anisamido) = COc1ccc(C(=O)Nc2ccc(S(=O)(=O)*)cc2)cc1; Benzoyl(4-(4-EtNHCO-PhO)) = CCNC(=O)c1ccc(Oc2ccc(C(=O)*)cc2)cc1; Benzoyl(4-O-C6H4-4-CONHMe) = CNC(=O)c1ccc(Oc2ccc(C(=O)*)cc2)cc1; Benzenesulfonyl(4-OPh) = O=S(=O)(c1ccc(Oc2ccccc2)cc1)*; X17 = CC(=O)Nc1ccc(-c2ccc(S(=O)(=O)*)cc2)cc1; X15 = CC(=O)c1ccc(-c2ccc(S(=O)(=O)*)cc2)cc1; Benzoyl(4-OPh) = O=C(c1ccc(Oc2ccccc2)cc1)*; d(γGlu) = O=C(O)[C@@H](CCC(=O)[*:2])N[*:1]; d(βAsp) = O=C(O)[C@@H](CC(=O)[*:2])N[*:1]; X7 = O=S(=O)(c1ccc(-c2ccc(OCCO)cc2)cc1)*; C16 diacid = O=C(O)CCCCCCCCCCCCCCC(=O)*; X13 = Cc1ccc(C#Cc2ccc(S(=O)(=O)*)s2)cc1; NMeF = CN[C@@H](Cc1ccccc1)C(=O)O; NMeI = CC[C@H](C)[C@H](NC)C(=O)O; NMeE = CN[C@@H](CCC(=O)O)C(=O)O; NMeD = CN[C@@H](CC(=O)O)C(=O)O; NMeN = CN[C@@H](CC(N)=O)C(=O)O; NMeL = CN[C@@H](CC(C)C)C(=O)O; NMeM = CN[C@@H](CCSC)C(=O)O; NMeV = CN[C@H](C(=O)O)C(C)C; β3hP = O=C(O)C[C@@H]1CCCN1; Orn = NCCC[C@H](N)C(=O)O; Dab = NCC[C@H](N)C(=O)O; Dap = NC[C@H](N)C(=O)O; AEEA = NCCOCCOCC(=O)O; Ava = NCCCCC(=O)O; GABA = NCCCC(=O)O; βAla = NCCC(=O)O

The compounds below were run against T1, MMP2 (Homo sapiens, UniProt P08253) (assay: Inhibitory effects on human MMP2 (Method 1), enzyme assay with MOCAc-Pro-Leu-Gly-Leu-A2pr(Dnp)-Ala-Arg-NH2 substrate, 96-well). Conditions: Test Example No. 1-1 (Method 1, 96-well microplate); read-out: Human MMP2, IC50.
T1 sequence (P08253 110-660): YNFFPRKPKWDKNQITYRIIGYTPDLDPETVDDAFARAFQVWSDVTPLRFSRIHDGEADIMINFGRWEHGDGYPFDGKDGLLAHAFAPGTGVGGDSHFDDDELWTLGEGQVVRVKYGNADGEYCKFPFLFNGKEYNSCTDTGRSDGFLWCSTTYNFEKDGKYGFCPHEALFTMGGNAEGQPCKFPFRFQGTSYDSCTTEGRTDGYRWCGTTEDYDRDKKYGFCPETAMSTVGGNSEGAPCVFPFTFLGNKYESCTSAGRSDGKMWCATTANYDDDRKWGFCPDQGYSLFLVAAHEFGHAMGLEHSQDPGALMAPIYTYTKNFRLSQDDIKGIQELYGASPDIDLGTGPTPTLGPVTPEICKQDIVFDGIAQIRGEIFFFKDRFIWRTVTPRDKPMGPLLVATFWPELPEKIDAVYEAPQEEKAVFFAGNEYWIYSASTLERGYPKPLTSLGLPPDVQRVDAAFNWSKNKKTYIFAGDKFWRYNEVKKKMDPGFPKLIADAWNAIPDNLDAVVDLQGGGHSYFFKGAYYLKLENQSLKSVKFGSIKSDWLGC
Assay type: biochemical
Protocol: In a reaction solution [50 mmol/L Tris-HCl (pH 7.5), 150 mmol/L NaCl, 10 mmol/L CaCl2, 0.05% Brij L23], 100 μg/mL human recombinant MMP2 enzyme and 1 mmol/L 4-Aminophenylmercuric acetate were mixed together, and reacted at 37° C. for 60 minutes. The human MMP2 activated through the reaction was poured into a 96-well microplate to reach a final concentration of 0.7 or 7 ng/mL.

Compound	IC50
CSCC[C@@H](C(=O)N1CCC[C@H]1C(N)=O)N(C)C(=O)[C@H](CC(C)C)NC(=O)[C@H](C)NC(=O)[C@H](CC(=O)O)NC(=O)[C@H](CC(N)=O)NC(=O)CCCNS(=O)(=O)c1ccc(C#Cc2ccc(C)cc2)s1 [Compound 588] ({X13-GABA}-NDAL[NMeM]P-NH2; N-terminus assumed)	0.12 nM
CC[C@H](C)[C@@H](C(=O)N1CCC[C@H]1CC(N)=O)N(C)C(=O)[C@H](CC(C)C)NC(=O)[C@H](CCN)NC(=O)[C@H](CC(=O)O)NC(=O)[C@H](CCCN)NC(=O)CCCNC(=O)c1ccc(Oc2ccccc2)cc1 [Compound 148] ({Benzoyl(4-OPh)-GABA}-[Orn]D[Dab]L[NMeI][β3hP]-NH2; N-terminus assumed)	0.48 nM
CC[C@H](C)[C@@H](C(=O)N1CCC[C@H]1C(N)=O)N(C)C(=O)[C@H](CC(C)C)NC(=O)[C@H](C)NC(=O)[C@H](CC(=O)O)NC(=O)[C@H](CC(C)C)N(C)C(=O)CCCNC(=O)c1ccc(Oc2ccccc2)cc1 [Compound 120] ({Benzoyl(4-OPh)-GABA}-[NMeL]DAL[NMeI]P-NH2; N-terminus assumed)	0.21 nM
CC[C@H](C)[C@@H](C(=O)N1CCC[C@H]1CC(N)=O)N(C)C(=O)[C@H](CC(C)C)NC(=O)[C@H](CCN)NC(=O)[C@H](CC(=O)O)NC(=O)[C@@H](NC(=O)CCCNC(=O)c1ccc(Oc2ccccc2)cc1)C(C)C [Compound 146] ({Benzoyl(4-OPh)-GABA}-VD[Dab]L[NMeI][β3hP]-NH2; N-terminus assumed)	1.7 nM
CC[C@H](C)[C@@H](C(=O)N1CCC[C@H]1C(N)=O)N(C)C(=O)[C@H](CC(C)C)NC(=O)[C@H](C)NC(=O)[C@H](CC(=O)O)NC(=O)[C@H](CCC(N)=O)NC(=O)CCCNC(=O)c1ccc(Oc2ccccc2)cc1 [Compound 128] ({Benzoyl(4-OPh)-GABA}-QDAL[NMeI]P-NH2; N-terminus assumed)	0.15 nM
CC[C@H](C)[C@@H](C(=O)N1CCC[C@H]1CC(N)=O)N(C)C(=O)[C@H](CC(C)C)NC(=O)[C@H](C)NC(=O)C[C@@H](NS(=O)(=O)c1ccc(-c2ccc(C(C)=O)cc2)cc1)C(=O)O [Compound 634, N^2-(4′-acetyl[1,1′-biphenyl]-4-sulfonyl)-N-[(2S)-1-({(2S)-1-[{(2S,3S)-1-[(2S)-2-(2-amino-2-oxoethyl)pyrrolidin-1-yl]-3-methyl-1-oxopentan-2-yl}(methyl)amino]-4-methyl-1-oxopentan-2-yl}amino)-1-oxopropan-2-yl]-D-asparagine] ({X15-d(βAsp)}-AL[NMeI][β3hP]-NH2)	0.13 nM
CC[C@H](C)[C@@H](C(=O)N1CCC[C@H]1CC(N)=O)N(C)C(=O)[C@H](CC(C)C)NC(=O)[C@H](C)NC(=O)C[C@@H](NS(=O)(=O)c1ccc(-c2ccc(NC(C)=O)cc2)cc1)C(=O)O [Compound 636] ({X17-d(βAsp)}-AL[NMeI][β3hP]-NH2; N-terminus assumed)	0.94 nM
CC[C@H](C)[C@@H](C(=O)N1CCC[C@H]1C(N)=O)N(C)C(=O)[C@H](CC(C)C)NC(=O)[C@H](C)NC(=O)[C@H](CC(=O)O)NC(=O)[C@H](CC(=O)O)N(C)C(=O)CCCNC(=O)c1ccc(Oc2ccccc2)cc1 [Compound 125] ({Benzoyl(4-OPh)-GABA}-[NMeD]DAL[NMeI]P-NH2)	0.47 nM
CC(C)C[C@H](NC(=O)[C@H](CCN)NC(=O)C[C@@H](NS(=O)(=O)c1ccc(-c2ccc(OCCO)cc2)cc1)C(=O)O)C(=O)N(C)[C@@H](CCC(=O)O)C(=O)N1CCC[C@H]1CC(N)=O [Compound 640] ({X7-d(βAsp)}-[Dab]L[NMeE][β3hP]-NH2; N-terminus assumed)	0.38 nM
CC[C@H](C)[C@@H](C(=O)N1CCC[C@H]1C(N)=O)N(C)C(=O)[C@H](CC(C)C)NC(=O)[C@H](C)NC(=O)[C@H](CC(=O)O)NC(=O)[C@H](Cc1ccccc1)N(C)C(=O)CCCNC(=O)c1ccc(Oc2ccccc2)cc1 [Compound 124] ({Benzoyl(4-OPh)-GABA}-[NMeF]DAL[NMeI]P-NH2; N-terminus assumed)	0.31 nM
CC[C@H](C)[C@@H](C(=O)N1CCC[C@H]1CC(N)=O)N(C)C(=O)[C@H](CC(C)C)NC(=O)[C@H](CCN)NC(=O)[C@H](CC(=O)O)NC(=O)[C@H](CCCNC(=N)N)NC(=O)CCCCNC(=O)c1ccc(Oc2ccc(C(=O)NC)cc2)cc1 [Compound 189] ({Benzoyl(4-O-C6H4-4-CONHMe)-Ava}-RD[Dab]L[NMeI][β3hP]-NH2; N-terminus assumed)	0.86 nM
CC(C)C[C@H](NC(=O)[C@H](CCN)NC(=O)[C@H](CC(=O)O)NC(=O)[C@H](CCCN)NC(=O)CCCNC(=O)c1ccc(Oc2ccccc2)cc1)C(=O)N(C)[C@@H](CCC(=O)O)C(=O)N1CCC[C@H]1CC(N)=O [Compound 145] ({Benzoyl(4-OPh)-GABA}-[Orn]D[Dab]L[NMeE][β3hP]-NH2; N-terminus assumed)	0.72 nM
CC[C@H](C)[C@@H](C(=O)N1CCC[C@H]1C(N)=O)N(C)C(=O)[C@H](CC(C)C)NC(=O)[C@H](CCN)NC(=O)[C@H](CC(=O)O)NC(=O)[C@H](CC(N)=O)N(C)C(=O)CCCNC(=O)c1ccc(Oc2ccccc2)cc1 [Compound 111] ({Benzoyl(4-OPh)-GABA}-[NMeN]D[Dab]L[NMeI]P-NH2; N-terminus assumed)	0.96 nM
CCNC(=O)c1ccc(Oc2ccc(C(=O)NCCCCC(=O)N[C@@H](CCCCN)C(=O)N[C@@H](CC(=O)O)C(=O)N[C@@H](CCN)C(=O)N[C@@H](CC(C)C)C(=O)N(C)[C@H](C(=O)N3CCC[C@H]3CC(N)=O)[C@@H](C)CC)cc2)cc1 [Compound 193] ({Benzoyl(4-(4-EtNHCO-PhO))-Ava}-KD[Dab]L[NMeI][β3hP]-NH2; N-terminus assumed)	1.7 nM
Cc1ccc(C#Cc2ccc(S(=O)(=O)NCCC(=O)N[C@@H](CC(N)=O)C(=O)N[C@@H](CC(=O)O)C(=O)N[C@@H](C)C(=O)N[C@@H](CC(C)C)C(=O)N(C)[C@H](C(=O)N3CCC[C@H]3C(N)=O)C(C)C)s2)cc1 [Compound 589] ({X13-βAla}-NDAL[NMeV]P-NH2; N-terminus assumed)	0.12 nM
CCNC(=O)c1ccc(Oc2ccc(C(=O)NCCCCC(=O)N[C@@H](CCCNC(=N)N)C(=O)N[C@@H](CC(=O)O)C(=O)N[C@@H](CCN)C(=O)N[C@@H](CC(C)C)C(=O)N(C)[C@@H](CCC(=O)O)C(=O)N3CCC[C@H]3CC(N)=O)cc2)cc1 [Compound 196] ({Benzoyl(4-(4-EtNHCO-PhO))-Ava}-RD[Dab]L[NMeE][β3hP]-NH2; N-terminus assumed)	1.7 nM
CSCC[C@@H](C(=O)N1CCC[C@H]1C(N)=O)N(C)C(=O)[C@H](CC(C)C)NC(=O)[C@H](C)NC(=O)[C@H](CC(=O)O)NC(=O)[C@H](CC(N)=O)NC(=O)CCNS(=O)(=O)c1ccc(C#Cc2ccc(C)cc2)s1 [Compound 587, N-{5-[(4-methylphenyl)ethynyl]thiophene-2-sulfonyl}-β-alanyl-L-asparaginyl-L-α-aspartyl-L-alanyl-L-leucyl-N-methyl-L-methionyl-L-prolinamide] ({X13-βAla}-NDAL[NMeM]P-NH2)	0.19 nM
CC(C)C[C@H](NC(=O)[C@H](CN)NC(=O)C[C@@H](NS(=O)(=O)c1ccc(-c2ccc(OCCO)cc2)cc1)C(=O)O)C(=O)N(C)[C@@H](CCC(=O)O)C(=O)N1CCC[C@H]1CC(N)=O [Compound 638] ({X7-d(βAsp)}-[Dap]L[NMeE][β3hP]-NH2; N-terminus assumed)	0.14 nM
CC[C@H](C)[C@@H](C(=O)N1CCC[C@H]1CC(N)=O)N(C)C(=O)[C@H](CC(C)C)NC(=O)[C@H](CCN)NC(=O)CC[C@@H](NS(=O)(=O)c1ccc(NC(=O)c2ccc(OC)cc2)cc1)C(=O)O [Compound 695] ({Phenylsulfonyl(4-anisamido)-d(γGlu)}-[Dab]L[NMeI][β3hP]-NH2; N-terminus assumed)	0.53 nM
CC[C@H](C)[C@@H](C(=O)N1CCC[C@H]1C(N)=O)N(C)C(=O)[C@H](CC(C)C)NC(=O)[C@H](C)NC(=O)[C@H](CC(=O)O)NC(=O)[C@H](C(C)C)N(C)C(=O)CCCNC(=O)c1ccc(Oc2ccccc2)cc1 [Compound 119] ({Benzoyl(4-OPh)-GABA}-[NMeV]DAL[NMeI]P-NH2; N-terminus assumed)	0.17 nM

Same assay, conditions: Test Example No. 1-1 (Method 1, 96-well); read-out: Human MMP2, IC50

Compound	IC50
CC[C@H](C)[C@@H](C(=O)N1CCC[C@H]1CC(N)=O)N(C)C(=O)[C@H](CC(C)C)NC(=O)[C@H](C)NC(=O)[C@H](CC(=O)O)NC(=O)[C@H](CCCCNC(=O)COCCOCCNC(=O)COCCOCCNC(=O)CC[C@@H](NC(=O)CCCCCCCCCCCCCCC(=O)O)C(=O)O)NC(=O)CCCNS(=O)(=O)c1ccc(Oc2ccccc2)cc1 [Compound 903, (2S,5S,32R)-2-{[(2S)-1-({(2S)-1-[{(2S,3S)-1-[(2S)-2-(2-amino-2-oxoethyl)pyrrolidin-1-yl]-3-methyl-1-oxopentan-2-yl}(methyl)amino]-4-methyl-1-oxopentan-2-yl}amino)-1-oxopropan-2-yl]carbamoyl}-4,11,20,29,34-pentaoxo-5-{4-[(4-phenoxybenzene-1-sulfonyl)amino]butanamido}-13,16,22,25-tetraoxa-3,10,19,28,33-pentaazaoctatetracontane-1,32,48-tricarboxylic acid] ({Benzenesulfonyl(4-OPh)-GABA}-K([AEEA-AEEA-d(γGlu)-C16 diacid])DAL[NMeI][β3hP]-NH2)	0.127 nM
